What was measured:
[1] = system: NCI-H358 human non-small cell lung cancer; test: NCI-H358 CCK-8 proliferation assay; format: cell-based; conditions: NCI-H358 cells, 72 hr
Procedure, shortened: (§1)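 KRAS(G12C) lines were used: MIA PaCa-2 with 2 copies, and NCI-H358 and NCI-H23 with 1 copy each. Cells were treated with 3-fold compound dilutions from 20 μM to 1.02 nM, and proliferation was read by CCK-8 absorbance. % inhibition was calculated against DMSO-treated cells after subtracting the cell-free medium blank.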

HSP90a protein = target: T1, HSP90a protein (Homo sapiens, UniProt P07900); test: HSP90α-binding fluorescent polarization (FP) assay, BODIPY-labeled RNK04010 probe; conditions: FP competition with RNK04010 (BODIPY-labeled), 5 nM, 300 min at 25° C.
T1 construct: purchased BPS Bioscience 50298
Procedure, shortened: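 N-terminal HSP90a construct; tracer 5 nM final (FITC-geldanamycin or BODIPY-RNK04010, a labeled triazolone binder). Compounds 20 μM–5.2 nM, 2.5-fold steps. 25° C, 120 min (FITC) / 300 min (BODIPY). FP readout.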

[2] = system: MIA PaCa-2 human pancreatic carcinoma; test: MIA PaCa-2 CCK-8 proliferation assay; format: cell-based; conditions: Homo sapiens, MIA PaCa-2, 72 h, MIA PaCa-2 cells
Procedure, shortened: as §1

[3] = system: NCI-H23 human non-small cell lung cancer; test: NCI-H23 CCK-8 proliferation assay; format: cell-based; conditions: NCI-H23 cells, 72 hr
Method: The following cancer cell lines were employed: BT-474 human breast carcinoma (ATCC, #HTB-20); MIA PaCa-2 human pancreatic carcinoma [2 copies KRAS(G12C)](ATCC, #CRL-1420); NCI-H23 human non-small cell lung cancer [1 copy KRAS(G12C)](ATCC, #CRL-5800); NCI-H358 human non-small cell lung cancer [1 copy KRAS(G12C)](ATCC, #CRL-5807); LU65A human lung carcinoma (Pharmaron, Beijing, China). Cell lines were cultured essentially according to ATCC and Pharmaron recommendations.
Cancer Cell Line Proliferation (CCK-8) Assays
3-fold serial dilutions of each test compound were prepared ranging from 20 μM to 1.02 nM.
% Inhibition=100−(D−B)/(S−B)*100%. • S: Absorbance of cells treated with DMSO • D: Absorbance of compound-treated cells • B: Absorbance of medium with DMSO without cells

Row | SMILES | EC50 [1] [nM] | IC50 (HSP90a protein) [nM] | EC50 [2] [nM] | EC50 [3] [nM]
1 | CCC(=O)N1CCN(c2nc(NCCC(=O)N3CCC(CN4CCN(Cc5ccc(-n6c(C(=O)NC(C)C(F)(F)F)nnc6-c6cc(CC)c(O)cc6O)cc5)CC4)CC3)nc3c2CCN(c2cc(O)cc4ccccc24)C3)CC1 (stereo not shown) [Compound 119, 5-(5-ethyl-2,4-dihydroxyphenyl)-4-(4-((4-((1-(3-((7-(3-hydroxynaphthalen-1-yl)-4-(4-propionylpiperazin-1-yl)-5,6,7,8-tetrahydropyrido[3,4-d]pyrimidin-2-yl)amino)propanoyl)piperidin-4-yl)methyl)piperazin-1-yl)methyl)phenyl)-N-(1,1,1-trifluoropropan-2-yl)-4H-1,2,4-triazole-3-carboxamide, trifluoroacetic acid] | 100 to 1000 | 100 to 1000 | – | 100 to 1000
2 | C=CC(=O)N1CCN(c2nc(NCCC(=O)N3CCN(Cc4ccc(CN(C)Cc5ccc(-n6c(C(=O)NCC(F)(F)F)nnc6-c6cc(C(C)C)c(O)cc6O)cc5)cc4)CC3)nc3c2CCN(c2cccc4ccccc24)C3)C[C@H]1CC#N [Compound 109, (R)-4-(4-(((4-((4-(3-((4-(4-acryloyl-3-(cyanomethyl)piperazin-1-yl)-7-(naphthalen-1-yl)-5,6,7,8-tetrahydropyrido[3,4-d]pyrimidin-2-yl)amino)propanoyl)piperazin-1-yl)methyl)benzyl)(methyl)amino)methyl)phenyl)-5-(2,4-dihydroxy-5-isopropylphenyl)-N-(2,2,2-trifluoroethyl)-4H-1,2,4-triazole-3-carboxamide, trifluoroacetic acid] | 100 to 1000 | 100 to 1000 | – | 100 to 1000
3 | CCc1cc(-c2nnc(C(=O)NCC(F)(F)F)n2-c2ccc(CN(C)Cc3ccc(CC4CCN(C(=O)CCNc5nc6c(c(N7CCN(C(C)=O)[C@H](CC#N)C7)n5)CCN(c5cccc7ccccc57)C6)CC4)cc3)cc2)c(O)cc1O [Compound 118, (R)-4-(4-(((4-((1-(3-((4-(4-acetyl-3-(cyanomethyl)piperazin-1-yl)-7-(naphthalen-1-yl)-5,6,7,8-tetrahydropyrido[3,4-d]pyrimidin-2-yl)amino)propanoyl)piperidin-4-yl)methyl)benzyl)(methyl)amino)methyl)phenyl)-5-(5-ethyl-2,4-dihydroxyphenyl)-N-(2,2,2-trifluoroethyl)-4H-1,2,4-triazole-3-carboxamide, trifluoroacetic acid] | 100 to 1000 | > 1000 | – | 100 to 1000
4 | C=CC(=O)N1CCN(c2nc(NCCC(=O)N3CCC(CN4CCN(Cc5ccc(-n6c(C(N)=O)nnc6-c6cc(CC)c(O)cc6O)cc5)CC4)CC3)nc3c2CCN(c2cc(O)cc4ccccc24)C3)CC1 [Compound 71, 4-(4-((4-((1-(3-((4-(4-acryloylpiperazin-1-yl)-7-(3-hydroxynaphthalen-1-yl)-5,6,7,8-tetrahydropyrido[3,4-d]pyrimidin-2-yl)amino)propanoyl)piperidin-4-yl)methyl)piperazin-1-yl)methyl)phenyl)-5-(5-ethyl-2,4-dihydroxyphenyl)-4H-1,2,4-triazole-3-carboxamide] | 100 to 1000 | < 100 | – | > 1000
5 | C=CC(=O)N1CCN(c2nc(NCCC(=O)N3CCC(Cc4ccc(CN(C)Cc5ccc(-n6c(O)nnc6-c6cc(C(C)C)c(O)cc6O)cc5)cc4)CC3)nc3c2CCN(c2cc(O)cc4ccccc24)C3)CC1 [Compound 19, 1-(4-(2-((3-(4-(4-(((4-(3-(2,4-dihydroxy-5-isopropylphenyl)-5-hydroxy-4H-1,2,4-triazol-4-yl)benzyl)(methyl)amino)methyl)benzyl)piperidin-1-yl)-3-oxopropyl)amino)-7-(3-hydroxynaphthalen-1-yl)-5,6,7,8-tetrahydropyrido[3,4-d]pyrimidin-4-yl)piperazin-1-yl)prop-2-en-1-one, trifluoroacetic acid] | 100 to 1000 | 100 to 1000 | – | 100 to 1000
6 | CC(=O)N1CCN(c2nc(NCCC(=O)N3CCN(Cc4ccc(CN(C)Cc5ccc(-n6c(C(=O)NCC(F)(F)F)nnc6-c6cc(C(C)C)c(O)cc6O)cc5)cc4)CC3)nc3c2CCN(c2cc(O)cc4ccccc24)C3)CC1 [Compound 115, 4-(4-(((4-((4-(3-((4-(4-acetylpiperazin-1-yl)-7-(3-hydroxynaphthalen-1-yl)-5,6,7,8-tetrahydropyrido[3,4-d]pyrimidin-2-yl)amino)propanoyl)piperazin-1-yl)methyl)benzyl)(methyl)amino)methyl)phenyl)-5-(2,4-dihydroxy-5-isopropylphenyl)-N-(2,2,2-trifluoroethyl)-4H-1,2,4-triazole-3-carboxamide, trifluoroacetic acid] | 100 to 1000 | 100 to 1000 | – | 100 to 1000

Second part, the compound after the results:

Row | EC50 [1] [nM] | IC50 (HSP90a protein) [nM] | EC50 [2] [nM] | EC50 [3] [nM] | SMILES
7 | 100 to 1000 | < 100 | 100 to 1000 | 100 to 1000 | CC(=O)N1CCN(c2nc(NCCC(=O)N3CCC(CN4CCN(Cc5ccc(-n6c(O)nnc6-c6cc(C(C)C)c(O)cc6O)cc5)CC4)CC3)nc3c2CCN(c2cc(O)cc4ccccc24)C3)CC1 [Compound 21, 3-((4-(4-acetylpiperazin-1-yl)-7-(3-hydroxynaphthalen-1-yl)-5,6,7,8-tetrahydropyrido[3,4-d]pyrimidin-2-yl)amino)-1-(4-((4-(4-(3-(2,4-dihydroxy-5-isopropylphenyl)-5-hydroxy-4H-1,2,4-triazol-4-yl)benzyl)piperazin-1-yl)methyl)piperidin-1-yl)propan-1-one, trifluoroacetic acid]
8 | 100 to 1000 | < 100 | 100 to 1000 | 100 to 1000 | C=CC(=O)N1CCN(c2nc(NCCC(=O)NCc3ccc(CN4CCC(Cc5ccc(-n6c(C(=O)NCC(F)(F)F)nnc6-c6cc(C(C)C)c(O)cc6O)cc5)CC4)cc3)nc3c2CCN(c2cc(O)cc4ccccc24)C3)CC1 [Compound 25, 4-(4-((1-(4-((3-((4-(4-acryloylpiperazin-1-yl)-7-(3-hydroxynaphthalen-1-yl)-5,6,7,8-tetrahydropyrido[3,4-d]pyrimidin-2-yl)amino)propanamido)methyl)benzyl)piperidin-4-yl)methyl)phenyl)-5-(2,4-dihydroxy-5-isopropylphenyl)-N-(2,2,2-trifluoroethyl)-4H-1,2,4-triazole-3-carboxamide, trifluoroacetic acid]
9 | < 100 | 100 to 1000 | 100 to 1000 | 100 to 1000 | CCC(=O)N1CCN(c2nc(NCCC(=O)N3CCC(CN4CCN(Cc5ccc(-n6c(C(=O)NC7(C)CC7)nnc6-c6cc(CC)c(O)cc6O)cc5)CC4)CC3)nc3c2CCN(c2cc(O)cc4ccccc24)C3)CC1 [Compound 120, 5-(5-ethyl-2,4-dihydroxyphenyl)-4-(4-((4-((1-(3-((7-(3-hydroxynaphthalen-1-yl)-4-(4-propionylpiperazin-1-yl)-5,6,7,8-tetrahydropyrido[3,4-d]pyrimidin-2-yl)amino)propanoyl)piperidin-4-yl)methyl)piperazin-1-yl)methyl)phenyl)-N-(1-methylcyclopropyl)-4H-1,2,4-triazole-3-carboxamide, trifluoroacetic acid]
10 | 100 to 1000 | 100 to 1000 | 100 to 1000 | 100 to 1000 | CC(=O)N1CCN(c2nc(NCCC(=O)N3CCC(Cc4ccc(CN(C)Cc5ccc(-n6c(C(=O)NCC(F)(F)F)nnc6-c6cc(C(C)C)c(O)cc6O)cc5)cc4)CC3)nc3c2CCN(c2cc(O)cc4ccccc24)C3)CC1 [Compound 112, 4-(4-(((4-((1-(3-((4-(4-acetylpiperazin-1-yl)-7-(3-hydroxynaphthalen-1-yl)-5,6,7,8-tetrahydropyrido[3,4-d]pyrimidin-2-yl)amino)propanoyl)piperidin-4-yl)methyl)benzyl)(methyl)amino)methyl)phenyl)-5-(2,4-dihydroxy-5-isopropylphenyl)-N-(2,2,2-trifluoroethyl)-4H-1,2,4-triazole-3-carboxamide, trifluoroacetic acid]
11 | 100 to 1000 | 100 to 1000 | – | 100 to 1000 | C=C(F)C(=O)N1CCN(c2nc(N3CCC(N4CCN(Cc5ccc(-n6c(O)nnc6-c6cc(C(C)C)c(O)cc6O)cc5)CC4)CC3)nc3c2CCN(c2cccc4cccc(Cl)c24)C3)C[C@@H]1CC#N [Compound 132, (S)-2-(4-(7-(8-chloronaphthalen-1-yl)-2-(4-(4-(4-(3-(2,4-dihydroxy-5-isopropylphenyl)-5-hydroxy-4H-1,2,4-triazol-4-yl)benzyl)piperazin-1-yl)piperidin-1-yl)-5,6,7,8-tetrahydropyrido[3,4-d]pyrimidin-4-yl)-1-(2-fluoroacryloyl)piperazin-2-yl)acetonitrile]
